Reference: publication PMC11237774, “On-target, dual aminopeptidase inhibition provides cross-species antimalarial activity” (mBio, 2024)

Tested on: P. berghei ANKA
Experiment: P. berghei rodent malaria 4-day Peters' suppressive test
Assay type: in vivo, P. berghei (Balb/c mice)
Details: 50 mg/kg oral on days 0, 1, 2, 3 post-infection, read on day 4
Experimental: Female Balb/c mice at 6 weeks of age in groups of 4-5 were infected intraperitoneally with 2 × 10^7 P. berghei ANKA-infected erythrocytes. […] Parasitemia was assessed by visualizing Giemsa-stained thin blood smears by microscopy and a minimum of 1,000 RBCs was counted. […] University Animal Ethics Committee.

Structure (SMILES): CC(C)(C)CC(=O)NC(C(=O)NO)c1ccc(-c2cc(F)c(F)c(F)c2)cc1 (stereo not shown) [MMV1557817, N-(2-(hydroxyamino)−2-oxo-1-(3′,4′,5′-trifluoro-[1,1′-biphenyl]-4-yl)ethyl)-3,3-dimethylbutanamide]
- parasite reduction compared with vehicle control: 95.4%
